From patent US20250340525A1, “F[…] COMPOUND” ([…], INC., priority 2022, published 2025)

System: mice
Experiment: Anesthetic activity: inhalation exposure of mice in a microcircuit, loss-of-righting-reflex (LORR)
Type: in vivo
Conditions: inhalation exposure to vaporized compound/air mixture circulated through microcircuit, dose not quantified
Description: A sample of the product mixture formed in Step 4 of the synthesis of Example 1, comprising both cis- and trans-isomers of TTD (the “TTD mixture”), was administered to mice via inhalation exposure in a microcircuit connected using unidirectional airflow valves to a CO2 absorbent chamber and a glass syringe. A small amount of liquid TTD mixture was transferred into the glass syringe where it volatilized. Mice were transferred to the small cylindrical chamber, and the glass syringe was connected to the microcircuit in series. […] Delivery of TTD mixture was discontinued, and the mice were allowed to recover.
Separately, the trans-isomer of TTD isolated in step 5 of Example 1 above was administered to mice via inhalation exposure in a microcircuit connected using unidirectional airflow valves to a CO2 absorbent chamber and a glass syringe. A small amount of the TTD was transferred into the glass syringe where it volatilized. Mice were transferred to the small cylindrical chamber, and the glass syringe was connected to the microcircuit in series. […] Delivery of the TTD was discontinued, and the mice were allowed to recover.

Row | Compound | loss-of-righting-reflex (LORR) / anesthetic activity
1 | F[C@@H]1OC(F)(C(F)(F)F)O[C@H]1F (relative stereo) [trans-isomer of TTD, trans-2,4,5-trifluoro-2-trifluoromethyl-1,3-dioxolane] | indicated a loss-of-righting-reflex (LORR)
2 | FC1OC(F)(C(F)(F)F)OC1F (centres unmarked) [TTD mixture, 2,4,5-trifluoro-2-(trifluoromethyl)-1,3-dioxolane] | indicated a loss-of-righting-reflex (LORR)
